Experimental data reported in the supplement of paper PMC10307832.

Columns and labels:
Assay in all cases: relative viability (nuclei count vs DMSO), 5 days (fraction); higher = more cells survive
ABC-1 = tested on: ABC-1
Method in brief: (§1)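 One day after seeding in 1536-well plates, lung cancer cell lines were dosed by pin tool. Dosing was either single-drug or a fixed anchor-drug dose plus five library-drug doses (not always all listed) in √10 steps. After 5 days, nuclei were stained in one fix-and-stain step and counted on 4× images, and relative viability is the nuclei count of treated wells over that of vehicle wells, given as the median of duplicate plates.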

ChaGo-K-1 = tested on: ChaGo-K-1
Method in brief: as §1

HCC-78 = tested on: HCC-78
Method in brief: as §1

HOP-62 = tested on: HOP-62
Method in brief: as §1

LCLC-97TM1 = tested on: LCLC-97TM1
Method in brief: as §1

LOU-NH91 = tested on: LOU-NH91
Method in brief: as §1

NCI-H1355 = tested on: NCI-H1355
Method in brief: as §1

NCI-H1437 = tested on: NCI-H1437
Method in brief: as §1

NCI-H1755 = tested on: NCI-H1755
Method in brief: as §1

NCI-H1792 = tested on: NCI-H1792
Method in brief: as §1

NCI-H2009 = tested on: NCI-H2009
Method in brief: as §1

NCI-H2023 = tested on: NCI-H2023
Method in brief: as §1

NCI-H2085 = tested on: NCI-H2085
Method in brief: as §1

NCI-H2170 = tested on: NCI-H2170
Method in brief: as §1

NCI-H23 = tested on: NCI-H23
Method in brief: as §1

NCI-H2405 = tested on: NCI-H2405
Method in brief: as §1

NCI-H322M = tested on: NCI-H322M
Method in brief: as §1

NCI-H441 = tested on: NCI-H441
Method in brief: as §1

NCI-H650 = tested on: NCI-H650
Method in brief: as §1

NCI-H727 = tested on: NCI-H727
Method in brief: as §1

RERF-LC-KJ = tested on: RERF-LC-KJ
Method in brief: as §1

SK-MES-1 = tested on: SK-MES-1
Method in brief: as §1

UMC-11 = tested on: UMC-11
Method in brief: as §1

O=c1[nH]c2ccccc2n1C1CCN(CCCC(c2ccc(F)cc2)c2ccc(F)cc2)CC1 [Pimozide] + C[C@@H](Oc1cc(-c2cnn(C3CCNCC3)c2)cnc1N)c1c(Cl)ccc(F)c1Cl [Crizotinib] (partner 1 µM)
relative viability (ABC-1; first compound 0.08 µM): 1.03
relative viability (ABC-1; first compound 0.253 µM): 0.604
relative viability (ABC-1; first compound 0.8 µM): 0.783
relative viability (ABC-1; first compound 2.53 µM): 0.755
relative viability (ABC-1; first compound 8 µM): 0.606
relative viability (ChaGo-K-1; first compound 0.08 µM): 1.18
relative viability (ChaGo-K-1; first compound 0.253 µM): 1.04
relative viability (ChaGo-K-1; first compound 0.8 µM): 1.15
relative viability (ChaGo-K-1; first compound 2.53 µM): 1.02
relative viability (ChaGo-K-1; first compound 8 µM): 0.944
relative viability (HCC-78; first compound 0.08 µM): 0.263
relative viability (HCC-78; first compound 0.253 µM): 0.339
relative viability (HCC-78; first compound 0.8 µM): 0.333
relative viability (HCC-78; first compound 2.53 µM): 0.354
relative viability (HCC-78; first compound 8 µM): 0.315
relative viability (HOP-62; first compound 0.08 µM): 1.03
relative viability (HOP-62; first compound 0.253 µM): 0.859
relative viability (HOP-62; first compound 2.53 µM): 0.819
relative viability (HOP-62; first compound 8 µM): 0.991
relative viability (LCLC-97TM1; first compound 0.08 µM): 0.337
relative viability (LCLC-97TM1; first compound 0.253 µM): 0.356
relative viability (LCLC-97TM1; first compound 0.8 µM): 0.296
relative viability (LCLC-97TM1; first compound 2.53 µM): 0.424
relative viability (LCLC-97TM1; first compound 8 µM): 0.413
relative viability (LOU-NH91; first compound 0.08 µM): 0.52
relative viability (LOU-NH91; first compound 0.253 µM): 0.733
relative viability (LOU-NH91; first compound 0.8 µM): 0.73
relative viability (LOU-NH91; first compound 2.53 µM): 0.759
relative viability (LOU-NH91; first compound 8 µM): 0.581
relative viability (NCI-H1355; first compound 0.08 µM): 1.08
relative viability (NCI-H1355; first compound 0.253 µM): 0.988
relative viability (NCI-H1355; first compound 0.8 µM): 0.959
relative viability (NCI-H1355; first compound 2.53 µM): 0.937
relative viability (NCI-H1355; first compound 8 µM): 1.06
relative viability (NCI-H1437; first compound 0.08 µM): 0.949
relative viability (NCI-H1437; first compound 0.253 µM): 0.878
relative viability (NCI-H1437; first compound 0.8 µM): 0.898
relative viability (NCI-H1437; first compound 2.53 µM): 0.903
relative viability (NCI-H1437; first compound 8 µM): 0.751
relative viability (NCI-H1755; first compound 0.08 µM): 0.881
relative viability (NCI-H1755; first compound 0.253 µM): 0.845
relative viability (NCI-H1755; first compound 0.8 µM): 0.794
relative viability (NCI-H1755; first compound 2.53 µM): 0.792
relative viability (NCI-H1755; first compound 8 µM): 0.697
relative viability (NCI-H1792; first compound 0.08 µM): 0.95
relative viability (NCI-H1792; first compound 0.253 µM): 0.944
relative viability (NCI-H1792; first compound 0.8 µM): 0.937
relative viability (NCI-H1792; first compound 2.53 µM): 0.937
relative viability (NCI-H1792; first compound 8 µM): 0.971
relative viability (NCI-H2009; first compound 0.08 µM): 1.02
relative viability (NCI-H2009; first compound 0.253 µM): 0.995
relative viability (NCI-H2009; first compound 0.8 µM): 1.09
relative viability (NCI-H2009; first compound 2.53 µM): 1.01
relative viability (NCI-H2009; first compound 8 µM): 0.889
relative viability (NCI-H2023; first compound 0.08 µM): 0.539
relative viability (NCI-H2023; first compound 0.253 µM): 0.615
relative viability (NCI-H2023; first compound 0.8 µM): 0.742
relative viability (NCI-H2023; first compound 2.53 µM): 0.524
relative viability (NCI-H2023; first compound 8 µM): 0.522
relative viability (NCI-H2085; first compound 0.08 µM): 0.897
relative viability (NCI-H2085; first compound 0.253 µM): 0.792
relative viability (NCI-H2085; first compound 0.8 µM): 0.772
relative viability (NCI-H2085; first compound 2.53 µM): 0.712
relative viability (NCI-H2085; first compound 8 µM): 0.775
relative viability (NCI-H2170; first compound 0.08 µM): 1.03
relative viability (NCI-H2170; first compound 0.253 µM): 1.14
relative viability (NCI-H2170; first compound 0.8 µM): 1.06
relative viability (NCI-H2170; first compound 2.53 µM): 1.22
relative viability (NCI-H2170; first compound 8 µM): 1.07
relative viability (NCI-H23; first compound 0.08 µM): 0.625
relative viability (NCI-H23; first compound 0.253 µM): 0.482
relative viability (NCI-H23; first compound 0.8 µM): 0.517
relative viability (NCI-H23; first compound 2.53 µM): 0.573
relative viability (NCI-H23; first compound 8 µM): 0.524
relative viability (NCI-H2405; first compound 0.08 µM): 0.831
relative viability (NCI-H2405; first compound 0.253 µM): 0.814
relative viability (NCI-H2405; first compound 0.8 µM): 0.83
relative viability (NCI-H2405; first compound 2.53 µM): 0.819
relative viability (NCI-H2405; first compound 8 µM): 0.789
relative viability (NCI-H322M; first compound 0.253 µM): 0.805
relative viability (NCI-H322M; first compound 0.8 µM): 0.846
relative viability (NCI-H322M; first compound 2.53 µM): 0.832
relative viability (NCI-H322M; first compound 8 µM): 0.943
relative viability (NCI-H441; first compound 0.08 µM): 0.608
relative viability (NCI-H441; first compound 0.253 µM): 0.646
relative viability (NCI-H441; first compound 0.8 µM): 0.652
relative viability (NCI-H441; first compound 2.53 µM): 0.568
relative viability (NCI-H441; first compound 8 µM): 0.693
relative viability (NCI-H650; first compound 0.08 µM): 0.707
relative viability (NCI-H650; first compound 0.253 µM): 0.711
relative viability (NCI-H650; first compound 0.8 µM): 0.74
relative viability (NCI-H650; first compound 2.53 µM): 0.633
relative viability (NCI-H650; first compound 8 µM): 0.802
relative viability (NCI-H727; first compound 0.08 µM): 0.958
relative viability (NCI-H727; first compound 0.253 µM): 0.791
relative viability (NCI-H727; first compound 0.8 µM): 0.855
relative viability (NCI-H727; first compound 2.53 µM): 0.765
relative viability (NCI-H727; first compound 8 µM): 0.756
relative viability (RERF-LC-KJ; first compound 0.08 µM): 0.809
relative viability (RERF-LC-KJ; first compound 0.253 µM): 0.815
relative viability (RERF-LC-KJ; first compound 0.8 µM): 0.764
relative viability (RERF-LC-KJ; first compound 2.53 µM): 0.581
relative viability (RERF-LC-KJ; first compound 8 µM): 0.705
relative viability (SK-MES-1; first compound 0.08 µM): 0.882
relative viability (SK-MES-1; first compound 0.253 µM): 0.928
relative viability (SK-MES-1; first compound 0.8 µM): 0.957
relative viability (SK-MES-1; first compound 2.53 µM): 1.01
relative viability (SK-MES-1; first compound 8 µM): 0.901
relative viability (UMC-11; first compound 0.08 µM): 0.574
relative viability (UMC-11; first compound 0.253 µM): 0.618
relative viability (UMC-11; first compound 0.8 µM): 0.634
relative viability (UMC-11; first compound 2.53 µM): 0.584
relative viability (UMC-11; first compound 8 µM): 0.705
